Measurements from the NIST ThermoML archive (doi:10.1016/j.jct.2012.01.008).

Assay: xn = mol fraction of the nth substance listed
Details: Liquid, Vibrating tube method

CCC[N+]1(C)CCCCC1.O=S(=O)([N-]S(=O)(=O)C(F)(F)F)C(F)(F)F + CC(=O)c1ccccc1
mass density [kg/m3]
Details	100 kPa	10000 kPa	15000 kPa	20000 kPa	25000 kPa	30000 kPa	35000 kPa	40000 kPa	45000 kPa	50000 kPa
298.15 K, x2 = 0.1024	1393.3	1399.9	1402.9	1406	1408.8	1411.6	1414.3	1417.1	1419.8	1422.4
298.15 K, x2 = 0.2007	1376	1382.5	1385.4	1388.5	1391.3	1394.1	1396.8	1399.5	1402.2	1404.8
298.15 K, x2 = 0.3001	1355.5	1361.8	1364.8	1367.9	1370.7	1373.5	1376.2	1379	1381.7	1384.3
298.15 K, x2 = 0.4001	1331.8	1338	1341	1344.1	1346.9	1349.7	1352.4	1355.1	1357.8	1360.4
298.15 K, x2 = 0.5008	1303.8	1309.9	1312.8	1315.8	1318.5	1321.3	1324	1326.6	1329.3	1331.8
298.15 K, x2 = 0.6001	1270.5	1276.6	1279.5	1282.5	1285.2	1287.9	1290.5	1293.2	1295.7	1298.2
298.15 K, x2 = 0.7003	1229.4	1235.5	1238.3	1241.2	1243.9	1246.5	1249.1	1251.7	1254.2	1256.7
298.15 K, x2 = 0.7999	1178	1184	1186.8	1189.7	1192.3	1194.9	1197.5	1200.1	1202.6	1205
298.15 K, x2 = 0.8998	1111.5	1117.3	1120	1122.7	1125.2	1127.8	1130.4	1133	1135.4	1137.8
318.15 K, x2 = 0.1024	1376.7	1383.4	1386.8	1389.8	1392.8	1395.8	1398.8	1401.6	1404.5	1407.1
318.15 K, x2 = 0.2007	1359	1365.7	1369.1	1372.1	1375.1	1378.1	1381.1	1383.9	1386.7	1389.3
318.15 K, x2 = 0.3001	1338.4	1345.1	1348.5	1351.5	1354.5	1357.5	1360.5	1363.3	1366.1	1368.7
318.15 K, x2 = 0.4001	1314.6	1321.3	1324.7	1327.7	1330.7	1333.7	1336.5	1339.3	1342.1	1344.8
318.15 K, x2 = 0.5008	1286.6	1293.1	1296.5	1299.5	1302.4	1305.4	1308.2	1310.9	1313.7	1316.3
318.15 K, x2 = 0.6001	1253.2	1259.8	1263.1	1266.1	1269	1271.9	1274.8	1277.4	1280.2	1282.8
318.15 K, x2 = 0.7003	1212	1218.5	1221.8	1224.7	1227.7	1230.6	1233.4	1236	1238.7	1241.3
318.15 K, x2 = 0.7999	1160.6	1167.1	1170.2	1173.1	1176	1178.8	1181.7	1184.2	1186.9	1189.5
318.15 K, x2 = 0.8998	1093.9	1100.3	1103.4	1106.3	1109.2	1112	1114.9	1117.4	1120.1	1122.6
348.15 K, x2 = 0.1024	1350.8	1357.9	1361.5	1365.1	1368.5	1371.7	1374.9	1377.9	1381	1383.8
348.15 K, x2 = 0.2007	1333	1340.3	1344	1347.5	1350.9	1354.1	1357.4	1360.4	1363.4	1366.2
348.15 K, x2 = 0.3001	1312.4	1319.7	1323.4	1327	1330.4	1333.7	1336.8	1339.9	1342.8	1345.6
348.15 K, x2 = 0.4001	1288.5	1295.8	1299.5	1303	1306.4	1309.6	1312.8	1315.8	1318.8	1321.6
348.15 K, x2 = 0.5008	1260.2	1267.6	1271.2	1274.6	1277.9	1281.2	1284.3	1287.3	1290.3	1293.1
348.15 K, x2 = 0.6001	1226.6	1234.1	1237.7	1241.1	1244.4	1247.7	1250.8	1253.8	1256.8	1259.6
348.15 K, x2 = 0.7003	1185.5	1193	1196.6	1199.9	1203.2	1206.5	1209.6	1212.6	1215.6	1218.4
348.15 K, x2 = 0.7999	1134.2	1141.7	1145.2	1148.6	1151.8	1155.1	1158.2	1161.2	1164.2	1167
348.15 K, x2 = 0.8998	1067.9	1075.4	1078.9	1082.1	1085.4	1088.6	1091.7	1094.7	1097.7	1100.4
